# Assay results: ChEMBL document CHEMBL4765461, “Why All the Fuss about Oxidative Phosphorylation (OXPHOS)?” (J Med Chem, 2020)
# Columns and labels:
# [1] = Inhibition of mitochondrial complex 1 in human A549 cells assessed as oxygen consumption rate by seahorse analysis; assay type: cell-based
# [2] = target: cAMP and cAMP-inhibited cGMP 3',5'-cyclic phosphodiesterase 10A (Homo sapiens) (UniProt Q9Y233); experiment: Inhibition of PDE10A (unknown origin)
# [3] = Inhibition of mitochondrial complex 1 in Sprague-Dawley rat heart mitochondria by spectrophotometric method
# [4] = Inhibition of F0F1-ATP synthase in yeast intact mitochondria by LDH/pyruvate kinase coupled enzyme assay; design: species or system Saccharomyces cerevisiae
# [5] = Inhibition of yeast mitochondrial F0F1-ATP synthase by LDH/pyruvate kinase coupled enzyme assay; design: species or system Saccharomyces cerevisiae
# [6] = Inhibition of mitochondrial complex 1 in bovine heart mitochondria incubated for 3 hrs and measured up to 30 mins by colorimetric method
# [7] = Inhibition of mitochondrial complex1 (unknown origin); design: species or system Homo sapiens
# [8] = Antiproliferative activity against human H2030-BrM3 cells by IncuCyte live-cell imaging assay; assay type: functional, cell-based
# A549 = experiment: Antiproliferative activity against human A549 cells by IncuCyte live-cell imaging assay; assay type: functional, cell-based
# [9] = Inhibition of mitochondrial complex 1 in human NCI-H460 cells assessed as reduction in cell proliferation incubated for 48 hrs under galactose containing medium by cell titer glow assay; assay type: cell-based; conditions: NCI-H460, 48 h
# [10] = Inhibition of mitochondrial complex 1 in human PC-3 cell mitochondria assessed as reduction in oxygen consumption using glutamate/malate/ADP as substrate by oxygen sensitive fluorescent dye based assay
# [11] = Inhibition of mitochondrial pyruvate carrier in Wistar rat liver mitochondria assessed as reduction in [1-14C]pyruvate uptake preincubated for 2 mins followed by rotenone and [1-14C]pyruvate addition by scintillation counting method
# [12] = Inhibition of mitochondrial complex 1 in human MiaPaCa-2 cells assessed as reduction in oxygen consumption incubated for 24 hrs; assay type: cell-based; conditions: mia paca-2
# [13] = Inhibition of mitochondrial complex 1 in human NCI-H460 cells assessed as reduction in oxygen consumption rate by seahorse analysis; assay type: cell-based
# [14] = Ratio of drug level in ICR mouse brain to plasma at 30 mg/kg, po by LC-MS analysis; assay type: ADME, organism-based; conditions: read-out: BPR
# [15] = Oral bioavailability in ICR mouse at 30 mg/kg; assay type: ADME, organism-based; conditions: in vivo
# [16] = Inhibition of Cytochrome b-c1 complex I304M/R306K double mutant in Rhodobacter capsulatus MT-RBC1
# MCF7 = experiment: Inhibition of mammosphere formation in human MCF7 cells incubated for 5 days; assay type: functional, cell-based; conditions: MCF7, 120 h
# [17] = Growth inhibition of mouse GBM cells incubated for 4 days by Celltiter glo assay; assay type: functional, cell-based; conditions: 96 h
# GBM = experiment: Growth inhibition of patient derived GBM cells incubated for 4 days by Celltiter glo assay; assay type: functional, cell-based; conditions: Homo sapiens, 96 h
# [18] = Half life in ICR/CD-1 mouse S9 fraction incubated for 0 to 240 mins in presence of NADPH regenerating system by HPLC/MS analysis; assay type: ADME, subcellular; conditions: time 0-240 min
# [19] = Half life in mouse plasma incubated up to 1440 mins by mass spectrometric analysis; assay type: ADME, cell-free
# [20] = Half life in CD1 mouse plasma at 10 mg/kg, ip by LC/MS/MS analysis; assay type: ADME, organism-based
# [21] = Cmax in CD1 mouse plasma at 10 mg/kg, ip by LC/MS/MS analysis; assay type: ADME, organism-based; design: route intraperitoneal, dose 10 mg/kg
# cAMP and cAMP-inhibited cGMP 3',5'-cyclic phosphodiesterase 10A (Homo sapiens), sequence (Q9Y233 whole entry): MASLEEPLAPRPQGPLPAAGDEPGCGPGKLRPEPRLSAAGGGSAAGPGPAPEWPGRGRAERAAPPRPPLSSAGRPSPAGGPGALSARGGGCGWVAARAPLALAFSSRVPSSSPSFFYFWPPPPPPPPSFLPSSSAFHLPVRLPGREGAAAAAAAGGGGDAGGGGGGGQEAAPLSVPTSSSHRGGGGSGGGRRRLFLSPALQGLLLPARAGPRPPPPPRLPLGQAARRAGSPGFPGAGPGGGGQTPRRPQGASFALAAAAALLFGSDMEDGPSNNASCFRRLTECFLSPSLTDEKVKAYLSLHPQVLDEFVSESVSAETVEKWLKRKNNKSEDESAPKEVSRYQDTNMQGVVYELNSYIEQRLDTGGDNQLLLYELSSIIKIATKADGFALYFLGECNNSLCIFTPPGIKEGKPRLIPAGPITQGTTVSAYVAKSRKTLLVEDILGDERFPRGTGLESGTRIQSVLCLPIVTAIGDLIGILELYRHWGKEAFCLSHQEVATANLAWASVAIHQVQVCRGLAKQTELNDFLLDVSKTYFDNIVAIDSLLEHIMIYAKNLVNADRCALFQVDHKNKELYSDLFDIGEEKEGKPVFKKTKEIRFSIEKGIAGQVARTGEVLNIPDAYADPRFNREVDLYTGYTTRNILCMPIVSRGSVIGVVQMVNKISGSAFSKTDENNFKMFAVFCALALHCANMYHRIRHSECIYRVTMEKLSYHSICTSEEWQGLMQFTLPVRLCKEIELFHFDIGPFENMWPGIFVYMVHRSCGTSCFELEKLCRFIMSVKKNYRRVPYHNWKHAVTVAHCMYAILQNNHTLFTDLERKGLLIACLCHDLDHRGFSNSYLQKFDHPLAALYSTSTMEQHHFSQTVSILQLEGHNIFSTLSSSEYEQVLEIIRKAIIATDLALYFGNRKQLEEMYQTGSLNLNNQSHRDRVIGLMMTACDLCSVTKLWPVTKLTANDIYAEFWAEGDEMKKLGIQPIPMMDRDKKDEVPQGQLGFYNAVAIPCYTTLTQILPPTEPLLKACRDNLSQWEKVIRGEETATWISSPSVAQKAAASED
structure (smiles),measurement,setting,value
COc1ccc(Cc2nccc3cc(OC)c(OC)cc23)cc1OC [PAPAVERINE],IC50,[1],15.4 µM
same,IC20,[2],0.65 µM
Cc1ccc(Sc2cccc3[nH]c4nc(N)nc(N)c4c23)cc1,IC50,[3],9.9 µM
COC[C@@H](C[C@H]1O[C@@](O)([C@H](O)[C@@H]2C[C@H](OC)[C@@H](O)CC/C=C(C)/C=C/[C@@H](O[C@@H]3O[C@@H](C)[C@H](OC)[C@@H](O)[C@@H]3O)[C@H](C)/C=C(C)/C=C(C)/C=C(\C)C(=O)O2)[C@H](C)[C@@H](O)[C@H]1C)O[C@H]1C[C@](C)(O)[C@@H](O[C@H]2C[C@@H](OC)[C@H](O)[C@@H](C)O2)[C@H](C)O1,Ki,[4],5 µM
same,Ki,[5],4 µM
FC(F)(F)c1ccc(/C=C/c2nc(COc3ccc(CCCCn4ccnn4)cc3)co2)cc1 [MUBRITINIB],IC50,[6],0.051 µM
C=C(C)[C@H]1Cc2c(ccc3c2O[C@@H]2COc4cc(OC)c(OC)cc4[C@@H]2C3=O)O1 [ROTENONE],IC50,[7],0.1 µM
O=C(NCCCCCCCCCC[P+](c1ccccc1)(c1ccccc1)c1ccccc1)c1nn(Cc2ccc(Cl)cc2Cl)c2ccccc12,IC50,[8],0.74 µM
same,IC50,A549,0.69 µM
Cc1cc(-c2nc(-c3ccc(OC(F)(F)F)cc3)no2)nn1Cc1ccnc(N2CCN(C3CC3)CC2)c1,EC50,[9],0.003 µM
same,IC50,[10],0.01 µM
O=C(O)c1nn(Cc2ccc(Cl)cc2Cl)c2ccccc12 [LONIDAMINE],Ki,[11],2.5 µM
N=C(N)NC(=N)NCCCCCCCCCC[P+](c1ccccc1)(c1ccccc1)c1ccccc1,IC50,[12],0.4 µM
Cc1nc(-c2nc(-c3ccc(OC(F)(F)F)cc3)no2)nn1Cc1cccc(N2CCC(S(C)(=O)=O)CC2)c1,IC50,[13],0.0014 µM
CN(C)C(=N)NC(=N)N [METFORMIN],IC50,[12],1100 µM
same,Kp,[14],0.1
same,IC50,[8],139 µM
same,IC50,A549,208 µM
N=C(NC(=N)N1CCCC1)Nc1ccc(OC(F)(F)F)cc1 [LIXUMISTAT],bioavailability,[15],72.9%
same,Kp,[14],0.37
COc1cc2ccnc(Cc3cccc4ccccc34)c2cc1OC,IC50,[1],7.2 µM
same,IC20,[2],13.4 µM
O=C1C(O)=C([C@H]2CC[C@H](c3ccc(Cl)cc3)CC2)C(=O)c2ccccc21 [ATOVAQUONE],IC50,[16],0.01 µM
same,IC50,MCF7,1 µM
CCc1n(CC(=O)O[C@@H]2C[C@H](C)CC[C@H]2C(C)C)c2ccccc2[n+]1C.[Cl-],IC50,[17],0.15 µM
same,IC50,GBM,1 µM
same,half-life,[18],3.62 h
same,half-life,[19],0.0667 h
CC(C)[C@@H]1CC[C@@H](C)C[C@H]1OC(=O)Cn1c(-c2cccc(C(F)(F)F)c2)[n+](C)c2ccccc21.[I-],half-life,[20],15.2 h
same,Cmax,[21],375 ng/g
same,half-life,[19],5.1 h
